# From PubChem BioAssay (NCI)
# “And” between values parts separate entries of the source, which are not always exact repeats. Equal values may be shown once.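 In this assay, cells in 96-well plates receive the compound at five concentrations for 48 hours. Endpoints are linearly interpolated between the surrounding concentrations. Abbreviation: GI50, concentration required for 50% inhibition of growth. TGI is the concentration that stops growth completely.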
# Tests used:
# Experiment in all cases: NCI-60 cell line screen, 48 h
# UACC-257 melanoma = tested on: UACC-257 melanoma
# CAKI-1 renal = tested on: CAKI-1 renal
# HOP-62 NSCLC = tested on: HOP-62 NSCLC
# MALME-3M melanoma = tested on: MALME-3M melanoma
# DU-145 prostate = tested on: DU-145 prostate
# MDA-MB-435 = tested on: MDA-MB-435
# OVCAR-5 ovarian = tested on: OVCAR-5 ovarian
# RXF 393 renal = tested on: RXF 393 renal
Structure (SMILES),TGI (UACC-257 melanoma),TGI (CAKI-1 renal),TGI (HOP-62 NSCLC),TGI (MALME-3M melanoma),TGI (DU-145 prostate),TGI (MDA-MB-435),TGI (OVCAR-5 ovarian),TGI (RXF 393 renal),GI50 (UACC-257 melanoma),GI50 (CAKI-1 renal),GI50 (HOP-62 NSCLC),GI50 (MALME-3M melanoma),GI50 (DU-145 prostate),GI50 (MDA-MB-435),GI50 (OVCAR-5 ovarian),GI50 (RXF 393 renal)
O=C1NC(=O)C2(CCC(O)C2)c2cc[n+]([O-])cc21 (configuration not stated),> 100 µM,> 100 µM,> 100 µM,> 100 µM,> 100 µM,> 100 µM,> 100 µM,> 100 µM,–,–,–,–,–,–,–,–
COC(=O)c1c2c(c(C)[n+]([O-])c1C)C(=O)C(NCc1cccc(OC)c1)=CC2=O,3.27 µM,10.3 µM,25.3 µM,1.3 µM,12 µM,3.05 µM,4.76 µM,5.2 µM,1.55 µM,2.79 µM,3.07 µM,0.318 µM,3.43 µM,1.67 µM,2.05 µM,2.58 µM
Cc1ccc(C2SCc3nc4ccc(C(=O)c5ccccc5)cc4n32)cc1 (configuration not stated),> 61.9 µM,4.26 µM,39.6 µM,26.8 µM,89.6 µM,11.4 µM,55.2 µM,70.3 µM,22 µM,0.457 µM,14.8 µM,6.27 µM,27.9 µM,2.83 µM,21.5 µM,21.4 µM
O=C(c1ccco1)c1c(C(F)(F)F)nc2cc(C(F)(F)F)ccc2[n+]1[O-],> 100 µM,58.8 µM,> 100 µM,> 100 µM,> 100 µM,> 100 µM,> 100 µM,80 µM,> 100 µM,19.7 µM,22.9 µM,54.2 µM,45.1 µM,> 100 µM,67.8 µM,20.3 µM
CCOC(=O)CNC(=O)CCCn1c(=O)c2c3ccccc3n(C)c2n2nnc(-c3ccccc3)c12,> 50 µM,20 µM,17.7 µM,> 50 µM,> 50 µM,> 50 µM,> 50 µM,4.41 µM,> 50 µM,8.37 µM,5.88 µM,> 50 µM,32 µM,> 50 µM,27.7 µM,1.33 µM
C=CC[Se]C(=O)Cc1c(C)n(C(=O)c2ccc(Cl)cc2)c2ccc(OC)cc12,4.64 µM,3.05 µM,2.93 µM,3.45 µM,3.75 µM,8.44 µM,3.21 µM,–,2.02 µM,1.66 µM,0.435 µM,1.71 µM,1.9 µM,2.71 µM,1.72 µM,–
COc1cc(-c2nn(C(=O)NS(=O)(=O)c3ccc(C)cc3)cc2-c2ccncc2)ccc1Cl,60.2 µM,26.9 µM,10.8 µM,15.6 µM,75.7 µM,25.3 µM,39.4 µM,12 µM,12.1 µM,3.15 µM,2.9 µM,4.14 µM,6.88 µM,5.6 µM,5.53 µM,2.67 µM
COc1ccc2[nH]c(-c3cccc(N(C)C)c3)cc(=O)c2c1,> 100 µM,> 100 µM,94.2 µM,> 100 µM,–,0.213 µM and 0.202 µM,> 100 µM,0.351 µM,0.361 µM,0.418 µM,0.335 µM and 0.844 µM,–,0.589 µM,0.0444 µM,0.784 µM,–
Cc1ccccc1-n1c(/C=C\c2ccccn2)nc2ccccc2c1=O,> 100 µM,16.9 µM,> 100 µM,42.1 µM,11.3 µM,53 µM,> 100 µM,20 µM,31 µM,3.32 µM,47.4 µM,18.8 µM,3.4 µM,8.23 µM,19.5 µM,4.33 µM
CC1CCCN(CC(O)CN2CCCc3ccccc32)C1 (configuration not stated),> 100 µM,> 100 µM,> 100 µM,> 100 µM,> 100 µM,> 100 µM,> 100 µM,> 100 µM,–,–,–,–,–,–,–,–
C=C1C(=O)O[C@H]2[C@H]1[C@H](OC(=O)/C(C)=C\C)C[C@]1(CO1)[C@@H]1[C@H](OC(C)=O)C=C(C)[C@]21O,39.2 µM,36.8 µM,> 100 µM,35.3 µM,29 µM,42.4 µM,> 59.1 µM,25.6 µM,–,–,–,–,–,–,–,–
Cc1c2ncccc2nc2[nH]c3ccc(OCCN(C)C)cc3c12,28.5 µM,21.3 µM,13.7 µM,13.5 µM,11.6 µM,15.7 µM,19.2 µM,9.92 µM,10.4 µM,3.61 µM,1.73 µM,2.42 µM,1.9 µM,3.12 µM,2.81 µM,2.89 µM
CC12CCc3ccccc3C1=Nc1ccccc12 (configuration not stated),> 100 µM,51.6 µM,> 100 µM,> 100 µM,> 100 µM,82.6 µM,> 100 µM,> 100 µM,–,–,–,–,–,–,–,–
CCOC(=O)N1C/C(=C/c2ccc(OC)cc2)C(=O)/C(=C/c2ccc(OC)cc2)C1,11.4 µM,> 70.1 µM,5.11 µM,> 33.9 µM,> 100 µM,4.71 µM,21.6 µM,3.09 µM,2.88 µM,4.67 µM,2.1 µM,4.76 µM,4.18 µM,1.19 µM,4.23 µM,1.56 µM
CCCCCCNC(=O)Oc1ccc(/C(=C(\C)c2ccccc2)c2ccc(OCCN3CCCCC3)cc2)cc1,9.16 µM,5.11 µM,10.9 µM,3.46 µM,15.3 µM,4.01 µM,24.1 µM,3.32 µM,2.69 µM,2.2 µM,3.22 µM,1.75 µM,3.69 µM,1.84 µM,9.75 µM,1.52 µM
O=C1C(Cl)=C(Nc2cccc(C(F)(F)F)c2)C(=O)N1Cc1ccccc1Cl,29.7 µM,21.6 µM,25.4 µM,23.3 µM,29.6 µM,12.2 µM,37 µM,10.4 µM,13.7 µM,4.84 µM,12.6 µM,1.54 µM,14 µM,2.49 µM,18.3 µM,1.12 µM

Structure (SMILES),TGI (UACC-257 melanoma),TGI (CAKI-1 renal),TGI (HOP-62 NSCLC),TGI (MALME-3M melanoma),TGI (DU-145 prostate),TGI (MDA-MB-435),TGI (OVCAR-5 ovarian),TGI (RXF 393 renal),GI50 (UACC-257 melanoma),GI50 (CAKI-1 renal),GI50 (HOP-62 NSCLC),GI50 (MALME-3M melanoma),GI50 (DU-145 prostate),GI50 (MDA-MB-435),GI50 (OVCAR-5 ovarian),GI50 (RXF 393 renal)
COc1ccc2c(c1OC)-c1c(c3ccc([N+](=O)[O-])cc3c(=O)n1CCCN=[N+]=[N-])C2=O,> 100 µM,9.73 µM,92.8 µM,> 100 µM,> 100 µM,> 100 µM,> 100 µM,> 100 µM,17.2 µM,2.55 µM,5.02 µM,> 100 µM,4.88 µM,72.4 µM,> 100 µM,10.1 µM
CC1CCC2C(C)C3C(CC4C5CC=C6CC(OC7OC(CO)C(O)C(OC8OC(CO)C(O)C(O)C8O)C7OC7OC(C)C(O)C(O)C7O)CCC6(C)C5CCC43C)N2C1 (configuration not stated),33.2 µM and > 2.5 µg/mL,25.1 µM and > 2.5 µg/mL,32.2 µM and > 2.5 µg/mL,65.3 µM and > 2.5 µg/mL,38.7 µM and > 2.5 µg/mL,21 µM and > 2.5 µg/mL,28 µM and > 2.5 µg/mL,22.3 µM and > 2.5 µg/mL,> 2.5 µg/mL,> 2.5 µg/mL,> 2.5 µg/mL,> 2.5 µg/mL,> 2.5 µg/mL,> 2.5 µg/mL,> 2.5 µg/mL,> 2.5 µg/mL
C#CCOc1ccc2ncnc(Nc3ccc(NC(=O)CCl)cc3)c2c1,38.4 µM,23.6 µM,37.1 µM,18.1 µM,24 µM,> 100 µM,44.7 µM,17.9 µM,15.5 µM,11.3 µM,13.8 µM,4.58 µM,11.7 µM,2.67 µM,16.8 µM,4.64 µM
COc1ccc(NC(=O)c2sc3nc(C)c(C(O)c4ccc(OC)cc4)cc3c2N)cc1 (configuration not stated),> 50 µM,> 50 µM,> 50 µM,> 50 µM,> 50 µM,0.387 µM,> 50 µM,2.99 µM,11.1 µM,0.803 µM,2.03 µM,2.65 µM,1.65 µM,0.121 µM,1.87 µM,0.411 µM
Cc1ccc2[nH]c(C(=O)NN3C(=O)CSC34CCCC(C)C4)c(-c3ccccc3)c2c1 (configuration not stated),35 µM,33.8 µM,35.1 µM,34.7 µM,42.4 µM,34.8 µM,34.8 µM,20.3 µM,19.2 µM,15.5 µM,19.2 µM,18.3 µM,18.7 µM,18 µM,18.3 µM,5.85 µM
CCCCCC(=O)OCC(=O)O[C@@H]1C[C@]2(C(C)C)O[C@@]1(C)[C@@H]1CC[C@@H](C)[C@H]1[C@@H]2OC(=O)/C=C/c1ccccc1,> 89.2 µM,0.221 µM,> 100 µM,> 57 µM,> 72.4 µM,> 86.4 µM,> 100 µM,> 6.51 µM,> 55.7 µM,0.0329 µM,> 74.6 µM,> 35.4 µM,> 48.4 µM,> 58.2 µM,> 81.7 µM,0.127 µM
O=C(NCCN1CCOCC1)Nc1ccc(-c2cc3c(Nc4ccc(Oc5cccc(C(F)(F)F)c5)c(Cl)c4)ncnc3s2)cc1,1.84 µM,5.74 µM,5.93 µM,1.57 µM,9.26 µM,2 µM,6.32 µM,2.55 µM,0.927 µM,1.5 µM,1.46 µM,0.832 µM,2.93 µM,0.987 µM,1.66 µM,0.653 µM
CCCC(=O)NC(c1ccc2c(c1)OCO2)c1ccc2cccnc2c1O (configuration not stated),–,> 100 µM,> 100 µM,> 100 µM,> 100 µM,> 100 µM,> 100 µM,7.54 µM,–,0.669 µM,1.2 µM,2.17 µM,2 µM,3.7 µM,2.75 µM,1.47 µM
O=C(O)C(Br)C(Br)c1ccccc1[N+](=O)[O-] (configuration not stated),> 100 µM,> 100 µM,> 100 µM,> 100 µM,> 100 µM,> 100 µM,> 100 µM,> 100 µM,–,–,–,–,–,–,–,–
O=C(NCCCNC(=O)OCc1ccc2c(Br)cc(Br)c(O)c2n1)OCc1ccc2c(Br)cc(Br)c(O)c2n1,> 100 µM,> 100 µM,> 100 µM,> 100 µM,> 100 µM,> 100 µM,> 100 µM,> 100 µM,> 100 µM,> 100 µM,> 100 µM,> 100 µM,> 100 µM,> 100 µM,> 100 µM,> 100 µM
CCCCSCc1nc2nc(Cl)c(Cl)nc2[nH]1,44.5 µM,79.3 µM,42 µM,53.6 µM,> 100 µM,> 100 µM,> 100 µM,68.8 µM,–,–,–,–,–,–,–,–
COc1cccc(Cn2cc3c(c2)-c2oncc2CC3)c1,> 79.7 µM,> 84.8 µM,> 100 µM,80.1 µM,1.24 µM,0.327 µM,> 100 µM,–,4.13 µM,0.354 µM,0.528 µM,0.915 µM,0.314 µM,0.0769 µM,0.693 µM,0.368 µM
O=C(Nc1cccc2cccnc12)c1ccc(N2C(=O)[C@@H]3[C@H](C2=O)[C@@H]2C=C[C@H]3C2)cc1,> 100 µM,> 100 µM,> 100 µM,> 100 µM,> 100 µM,> 100 µM,> 100 µM,> 100 µM,30.5 µM,21 µM,36.7 µM,21.5 µM,29.9 µM,32.1 µM,55.9 µM,30.8 µM
O=C(O)c1ccc(S(=O)(=O)N=Nc2c(O)[nH]c3ccccc23)cc1,> 100 µM,> 100 µM,> 100 µM,> 100 µM,> 100 µM,> 100 µM,> 100 µM,> 100 µM,–,–,–,–,–,–,–,–
BrC(Br)(Br)c1cnc2ccccc2n1,6.48 µM,4.41 µM,7.9 µM,5.28 µM,7.14 µM,6.29 µM,7.45 µM,2.4 µM,2.02 µM,1.52 µM,2.27 µM,1.55 µM,2.21 µM,2.14 µM,2.77 µM,1.06 µM
